The results in this text go back to US5502066A, “1,2,4-dithiazolium salts as chemotherapeutics” (Bayer Aktiengesellschaft, priority 1993, dated 1996).

The nature of one data set: in vivo. Set-up: lethality, Dose 10 mg/kg / lethality, Dose 30 mg/kg / lethality, Dose 60 mg/kg: unit not given here. To be noted: mouse, in vivo, ip; substance 60 mg/kg + D-GalN 60 mg/kg, without LPS; mice; observation 48 hours; read-out: lethality, Substance + D-GalN control. As to the method:
(§1) Substances from the class of dithiazolium salts are described in their protective action by way of example in the following: in vitro in the TNF-α-mediated cytotoxicity test, and in vivo on mice which have been exposed to an endotoxin shock.
(§2) In vivo experiments on inhibition of provoked endotoxin shock were carried out on female inbred mice (F1 B6D2!). Endotoxin/lipopolysaccharide (LPS) from Salmonella abortus equi (0.1 μg/mouse) was administered intraperitoneally or intravenously in association with D-galactosamine hydrochloride (D-GalN; 60 mg/kg of bodyweight) in accordance with reports by Galanos et al. (1979, Proc. Natl. Acad. Sci. USA 76: 5939; V. Lehmann et al. 1987, J. Exp. Med. 165: 657). The substances were administered intraperitoneally one hour before inducement of the endotoxemic shock. The observation period was 48 hours.

Data set [1] deals with endotoxemic shock in D-GalN-sensitized mice. Briefly: in vivo. Set-up: lethality, Dose 10 mg/kg / lethality, Dose 30 mg/kg / lethality, Dose 60 mg/kg: unit not given here. Particulars: LPS + D-GalN control 100, 48 hours; for lethality, Dose 10 mg/kg: 10 mg/kg i.p. one hour before LPS (0.1 μg/mouse) + D-GalN (60 mg/kg); for lethality, Dose 30 mg/kg: 30 mg/kg i.p. one hour before LPS (0.1 μg/mouse) + D-GalN (60 mg/kg); for lethality, Dose 60 mg/kg: 60 mg/kg i.p. one hour before LPS (0.1 μg/mouse) + D-GalN (60 mg/kg). The protocol: as §1, §2

SMILES strings stand for the structures.

`CC1C[N+](=c2nc(N(C)C)ss2)CC(C)O1.[I-]` (centres unmarked) [Example 2, 4-(5-dimethylamino-3H-1,2,4-dithiazole-3-ylidene)-2,6-dimethyl-morpholinium iodide]: the mortality at 48 h in “in vivo” came out at 0%. For the same molecule, in data set [1], the “lethality, Dose 10 mg/kg” value worked out at 100; the “lethality, Dose 30 mg/kg” value worked out at 20; the “lethality, Dose 60 mg/kg” value was 0.
For the molecule `CN1CC[N+](=c2nc(N(C)C)ss2)CC1` [Example 8], the mortality at 48 h in “in vivo” stood at 0%. Moreover, in data set [1], the “lethality, Dose 10 mg/kg” value is 40; the “lethality, Dose 30 mg/kg” value is 0; the “lethality, Dose 60 mg/kg” value was 0.
Regarding `CN(C)c1nc(=[N+](C)Cc2ccc(Cl)cc2Cl)ss1` [Example 48], in “in vivo”, the mortality at 48 h was 0%. Besides, in data set [1], the “lethality, Dose 10 mg/kg” value is reported as 0; the “lethality, Dose 30 mg/kg” value turned out to be 0; the “lethality, Dose 60 mg/kg” value is 0.
For `CC(C)[N+](=c1nc(N(C)C)ss1)C(C)C` [Example 10], the mortality at 48 h in the data set “in vivo” turned out to be 0%. For the same molecule, in data set [1], the “lethality, Dose 10 mg/kg” value stood at 20; the “lethality, Dose 30 mg/kg” value turned out to be 0; the “lethality, Dose 60 mg/kg” value is on record as 0.
Turning to `CN(C)c1nc(=[N+](C)Cc2ccc(Cl)cc2)ss1` [Example 46], the mortality at 48 h in the data set “in vivo” was found to be 0%. For the same molecule, in data set [1], the “lethality, Dose 10 mg/kg” value worked out at 0; the “lethality, Dose 30 mg/kg” value is given as 0; the “lethality, Dose 60 mg/kg” value was found to be 0.
On to `CN(C)c1nc(=[N+](C)c2ccccc2)ss1.F[B-](F)(F)F` [Example 3, N-(5-dimethylamino-3H-1,2,4-dithiazole-3-ylidene)-N-methylanilinium tetrafluoroborate], for which, in “in vivo”, the mortality at 48 h stood at 0%. For the same molecule, in data set [1], the “lethality, Dose 10 mg/kg” value was 80; the “lethality, Dose 30 mg/kg” value amounted to 40; the “lethality, Dose 60 mg/kg” value worked out at 0.
Consider `CN(C)c1nc(=[N+](C)Cc2ccc(Cl)c(Cl)c2)ss1` [Example 43], for which, in “in vivo”, the mortality at 48 h amounted to 0%. Further, in data set [1], the “lethality, Dose 10 mg/kg” value was 20; the “lethality, Dose 30 mg/kg” value is 20; the “lethality, Dose 60 mg/kg” value came out at 0.
Take `CN(C)c1nc(=[N+]2CCOCC2)ss1` [Example 5]: in the data set “in vivo”, the mortality at 48 h is 0%. In addition, in data set [1], the “lethality, Dose 10 mg/kg” value turned out to be 40; the “lethality, Dose 30 mg/kg” value is reported as 0; the “lethality, Dose 60 mg/kg” value was 0.
